From patent US20140120083A1, “TREATMENT OF CANCERS USING PI3 KINASE ISOFORM MODULATORS” (INFINITY PHARMACEUTICALS, INC., priority 2012, published 2014)
Entries after “also recorded” stand apart in the source; their conditions may differ. Marks after values point to notes of the source that are not given here.

Assays:
respiratory system = assay: Respiratory study (plethysmography); details: male rats, single oral dose up to 350 mg/kg
[1] = Clinical study in healthy adult subjects, safety
[2] = Phase 1 study in advanced hematologic malignancies, safety
[3] = test system: hemodynamic and electrocardiographic parameters; assay: Cardiovascular telemetry study; type: in vivo, cynomolgus monkey; details: male monkeys
From the text: Four non-naive, male monkeys implanted with radiotelemetry transmitters were utilized during the conduct of this study.

Pharmacokinetics, monkey = type: in vivo, Cynomolgus monkeys
PI3K δ = PI3K δ (Homo sapiens, UniProt O00329); assay: Clinical study in healthy subjects, basophil activation (CD63 on CCR3+ basophils, ex vivo anti-FcεR1); parameters: from tissue; host or cells: human whole blood (basophils)
PI3K δ, sequence (O00329 whole entry): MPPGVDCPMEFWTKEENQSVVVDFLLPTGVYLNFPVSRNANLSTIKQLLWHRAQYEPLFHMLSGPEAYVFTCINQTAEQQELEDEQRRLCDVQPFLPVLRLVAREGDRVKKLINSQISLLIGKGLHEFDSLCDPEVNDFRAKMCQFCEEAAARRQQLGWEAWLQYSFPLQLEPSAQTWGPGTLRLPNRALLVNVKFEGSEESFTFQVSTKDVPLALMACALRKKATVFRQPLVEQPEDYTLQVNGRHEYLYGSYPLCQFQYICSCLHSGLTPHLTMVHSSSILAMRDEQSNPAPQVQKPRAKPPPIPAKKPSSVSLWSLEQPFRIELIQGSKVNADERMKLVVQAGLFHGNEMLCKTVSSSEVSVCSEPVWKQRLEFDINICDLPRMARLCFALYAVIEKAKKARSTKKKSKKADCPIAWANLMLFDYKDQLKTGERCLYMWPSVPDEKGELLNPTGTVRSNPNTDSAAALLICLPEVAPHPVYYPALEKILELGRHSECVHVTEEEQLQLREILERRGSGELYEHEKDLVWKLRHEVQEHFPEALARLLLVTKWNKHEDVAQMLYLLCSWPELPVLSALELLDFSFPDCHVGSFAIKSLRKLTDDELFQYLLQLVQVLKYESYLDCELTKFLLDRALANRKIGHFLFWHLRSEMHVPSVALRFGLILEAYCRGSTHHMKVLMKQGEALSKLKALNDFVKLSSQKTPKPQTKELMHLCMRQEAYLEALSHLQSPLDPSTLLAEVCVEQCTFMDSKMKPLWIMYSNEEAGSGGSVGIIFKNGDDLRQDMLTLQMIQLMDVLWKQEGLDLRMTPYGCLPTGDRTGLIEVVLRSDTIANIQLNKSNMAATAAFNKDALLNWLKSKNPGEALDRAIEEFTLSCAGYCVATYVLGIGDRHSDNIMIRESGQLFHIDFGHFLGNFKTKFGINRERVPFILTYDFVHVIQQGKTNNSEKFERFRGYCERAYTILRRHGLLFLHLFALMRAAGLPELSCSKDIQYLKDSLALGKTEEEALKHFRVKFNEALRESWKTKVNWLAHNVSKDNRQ
PI3K δ, sequence (P27986 whole entry partner): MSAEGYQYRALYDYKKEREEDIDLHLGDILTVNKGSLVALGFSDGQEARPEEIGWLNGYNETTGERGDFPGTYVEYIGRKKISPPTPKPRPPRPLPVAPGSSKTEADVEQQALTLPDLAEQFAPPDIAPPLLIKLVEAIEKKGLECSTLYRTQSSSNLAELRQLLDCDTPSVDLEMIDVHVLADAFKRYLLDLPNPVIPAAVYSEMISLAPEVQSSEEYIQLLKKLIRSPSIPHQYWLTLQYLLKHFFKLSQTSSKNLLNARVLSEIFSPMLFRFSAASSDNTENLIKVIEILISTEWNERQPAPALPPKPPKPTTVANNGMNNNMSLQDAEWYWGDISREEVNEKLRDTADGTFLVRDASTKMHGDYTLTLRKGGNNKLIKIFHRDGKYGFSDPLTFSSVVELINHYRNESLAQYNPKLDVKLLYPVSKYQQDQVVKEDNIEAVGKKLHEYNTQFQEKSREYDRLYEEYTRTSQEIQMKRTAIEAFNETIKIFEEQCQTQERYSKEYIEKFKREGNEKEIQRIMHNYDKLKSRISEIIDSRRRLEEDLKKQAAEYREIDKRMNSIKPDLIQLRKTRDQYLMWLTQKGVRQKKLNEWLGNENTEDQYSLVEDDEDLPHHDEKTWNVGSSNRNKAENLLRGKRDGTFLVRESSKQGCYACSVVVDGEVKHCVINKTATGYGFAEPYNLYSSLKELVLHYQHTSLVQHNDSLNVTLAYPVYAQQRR

[4] = In vivo rat micronucleus assay
[5] = Single-dose toxicity study (MTD); details: monkey, in vivo, po
hematologic malignancies = assay: Phase 1 study in advanced hematologic malignancies, clinical response
[6] = Plasma protein binding, human; type: in vitro ADME; details: 100 μM (41700 ng/mL)
From the text: (§1) […]. […] […].

[7] = 13-week repeat-dose safety study, rat
[8] = Phase 1 study in advanced hematologic malignancies, pharmacokinetics; type: in vivo, human; details: patients
Protocol: PK and PD markers were evaluated after the first dose (e.g., 8 mg BID) and at steady state. PD activity (PI3K inhibition) in whole blood was evaluated using a basophil activation assay which measured reduction in CD63 expression on the surface of basophils following ex vivo stimulation.

[9] = test system: TNF-α and IL-10 production; assay: Cytokine production in diluted whole blood stimulated with LPS; type: cell-based; details: diluted whole blood (1:1), 24 hours pre-treatment, 100 μg/mL LPS
Protocol: Serum concentrations of a panel of human cytokines/chemokines were determined by Milliplex 96-well immuno-assay as described below.

Pharmacokinetics, rat = type: in vivo, Sprague-Dawley rats
[10] = Plasma protein binding, monkey; type: in vitro ADME; details: 100 μM (41700 ng/mL)
From the text: as §1

[11] = multiple doses for 2 weeks (n=36)
[12] = Sprague-Dawley, in vivo, IV, 2 mg/kg
[13] = Sprague-Dawley, in vivo, PO, 10 mg/kg

C[C@H](Nc1ncnc2[nH]cnc12)c1cc2cccc(Cl)c2c(=O)n1-c1ccccc1 [Compound 292]
respiratory parameters (respiratory rate, tidal volume, minute volume) (respiratory system): no Compound 292-related effects
IgE ([1]; healthy subjects): No increases
deaths and serious adverse events ([1]; healthy subjects): no deaths and no serious adverse events
safety laboratory or ECG abnormalities ([1]; healthy subjects): No clinically significant safety laboratory or electrocardiogram (ECG) abnormalities
QTcF greater than 500 msec ([1]; healthy subjects, serial ECGs): No subject
largest change from baseline in QTcF ([1]; healthy subjects, serial ECGs): 37 ms
tolerability ([1]; healthy subjects, single doses up to 30 mg, up to 10 mg daily for 14 days): well tolerated; also recorded: well-tolerated
headache [1, 11]: 8%
myalgia [1, 11]: 6%
nasopharyngitis [1, 11]: 6%
dose limiting toxicity ([2]; 15 mg BID dose cohort): Grade 4 neutropenia
AE Leading to Discontinuation ([2]; 25 mg BID (n = 34)): 2 n
Any AE ([2]; 25 mg BID (n = 34)): 27 n
Any AE Grade 3 ([2]; 25 mg BID (n = 34)): 7 n
Any AE Grade 4 ([2]; 25 mg BID (n = 34)): 5 n
Deaths on Study ([2]; 25 mg BID (n = 34)): 0 n
Dose Reduced (New Grade 3/4 ALT) ([2]; 25 mg BID (n = 34)): 3 n
Dose Reduced (New Grade 3/4 ANC) ([2]; 25 mg BID (n = 34)): 2 n
New Grade 3 ALT ([2]; 25 mg BID (n = 34)): 3 n
New Grade 3 ANC ([2]; 25 mg BID (n = 34)): 2 n
New Grade 4 ANC ([2]; 25 mg BID (n = 34)): 4 n
Related AE ([2]; 25 mg BID (n = 34)): 18 n
Related Grade 3 AE ([2]; 25 mg BID (n = 34)): 4/4 n
Related Grade 4 AE ([2]; 25 mg BID (n = 34)): 4/4 n
SAE ([2]; 25 mg BID (n = 34)): 4 n
dose limiting toxicity ([2]; 75 mg BID): Grade 3 cellulitis
new Grade>3 neutropenia, n (%) ([2]; 20 patients, 8-50 mg BID): 6 (30%)
new Grade>3 thrombocytopenia, n (%) ([2]; 20 patients, 8-50 mg BID): 1 (5%)
patients with AEs Grade>3 ([2]; 20 patients, 8-50 mg BID): 7 (35%)
patients with adverse events ([2]; 20 patients, 8-50 mg BID): 13 (65%)
patients with treatment-related AEs ([2]; 20 patients, 8-50 mg BID): 11 patients
patients with treatment-related AEs Grade>3 ([2]; 20 patients, 8-50 mg BID): 5 patients
Grade 3 ALT/AST elevations, n (%) ([2]; 20 patients, 8-50 mg BID, MM patient): 1 (5%)
AE Leading to Discontinuation ([2]; Safety Population (n = 55)): 3 n
Any AE ([2]; Safety Population (n = 55)): 46 n
Any AE Grade 3 ([2]; Safety Population (n = 55)): 18 n
Any AE Grade 4 ([2]; Safety Population (n = 55)): 8 n
Deaths on Study ([2]; Safety Population (n = 55)): 3 n
Dose Reduced (New Grade 3/4 ALT) ([2]; Safety Population (n = 55)): 6 n
Dose Reduced (New Grade 3/4 ANC) ([2]; Safety Population (n = 55)): 5 n
New Grade 3 ALT ([2]; Safety Population (n = 55)): 5 n
New Grade 3 ANC ([2]; Safety Population (n = 55)): 10 n
New Grade 4 ANC ([2]; Safety Population (n = 55)): 5 n
Related AE ([2]; Safety Population (n = 55)): 31 n
Related Grade 3 AE ([2]; Safety Population (n = 55)): 14 n
Related Grade 4 AE ([2]; Safety Population (n = 55)): 6 n
SAE ([2]; Safety Population (n = 55)): 11 n
MTD ([2]; after dose escalation to 75 mg BID): not yet reached
tolerability ([2]; patients with advanced hematologic malignancies): well tolerated; also recorded: well-tolerated
hemodynamic or electrocardiographic parameters ([3]; single oral dose of 5, 30, and 150 mg/kg): No Compound 292-related effects
waveform abnormalities or arrhythmias ([3]; up to 150 mg/kg oral): no waveform abnormalities or arrhythmias
clearance (Pharmacokinetics, monkey; monkey): low to moderate
volume of distribution (Pharmacokinetics, monkey; monkey): high
AUC0-last (Pharmacokinetics, monkey; monkey, IV, 1 mg/kg): 2357 ng·h/mL
AUC(0-inf) (Pharmacokinetics, monkey; monkey, IV, 1 mg/kg): 2379 ng·h/mL
Cl (Pharmacokinetics, monkey; monkey, IV, 1 mg/kg): 7.17 mL/min/kg
Cmax (Pharmacokinetics, monkey; monkey, IV, 1 mg/kg): 1545 ng/mL
T1/2 (Pharmacokinetics, monkey; monkey, IV, 1 mg/kg): 5.0 h
Tmax (Pharmacokinetics, monkey; monkey, IV, 1 mg/kg): 0.083 h
Vss (Pharmacokinetics, monkey; monkey, IV, 1 mg/kg): 1.27 L/kg
AUC0-last (Pharmacokinetics, monkey; monkey, PO, 5 mg/kg): 4596 ng·h/mL
AUC(0-inf) (Pharmacokinetics, monkey; monkey, PO, 5 mg/kg): 4685 ng·h/mL
Cmax (Pharmacokinetics, monkey; monkey, PO, 5 mg/kg): 1327 ng/mL
Foral (Pharmacokinetics, monkey; monkey, PO, 5 mg/kg): 40%
T1/2 (Pharmacokinetics, monkey; monkey, PO, 5 mg/kg): 5.4 h
Tmax (Pharmacokinetics, monkey; monkey, PO, 5 mg/kg): 1.5 h
half-life (Pharmacokinetics, monkey; monkeys): 5 h
basophil activation (CD63 expression on CCR3+ basophils) (PI3K δ; all single and multiple dose levels): dose-dependent reduction; also recorded: reduced in a dose-dependent manner
dose at which maximal PD response was achieved (PI3K δ; single dose): 5 mg
rat micronucleus assay [4]: no direct adverse effect
MTD [5]: 500 mg/kg
onset of clinical activity (hematologic malignancies; CLL/SLL): Rapid onset
responses in evaluable patients (hematologic malignancies; CLL/SLL, 8, 15, and 25 mg BID dose levels): ⅔
Best Observed Response CR (hematologic malignancies; CLL/SLL, 11 evaluable): 0 n
Best Observed Response PR (hematologic malignancies; CLL/SLL, 11 evaluable): 6 n
Best Observed Response SD (hematologic malignancies; CLL/SLL, 11 evaluable, four nodal responses): 4^c n
Best Observed Response PR (hematologic malignancies; HL, 2 evaluable): 0 n
Best Observed Response SD (hematologic malignancies; HL, 2 evaluable): 0 n
Best Observed Response CR (hematologic malignancies; MCL, 3 evaluable): 0 n
Best Observed Response PR (hematologic malignancies; MCL, 3 evaluable): 2 n
Best Observed Response SD (hematologic malignancies; MCL, 3 evaluable): 0 n
responses in evaluable patients (hematologic malignancies; MCL, 8, 15, and 25 mg BID dose levels): 1/1
Best Observed Response CR (hematologic malignancies; MM, 3 evaluable): 0 n
Best Observed Response PD (hematologic malignancies; MM, 3 evaluable): 2 n
Best Observed Response PR (hematologic malignancies; MM, 3 evaluable): 0 n
Best Observed Response PD (hematologic malignancies; T-Cell Lymphoma, 6 evaluable): 3 n
doses at which responses were observed (hematologic malignancies; T-cell lymphoma and Hodgkin lymphoma): ≥ 50 mg BID
Best Observed Response CR (hematologic malignancies; aNHL, 3 evaluable): 0 n
Best Observed Response PD (hematologic malignancies; aNHL, 3 evaluable): 2 n
Best Observed Response PR (hematologic malignancies; aNHL, 3 evaluable): 0 n
tumor mass (hematologic malignancies; all indications and all dose levels evaluated): Reduction in tumor mass
responses in evaluable patients (hematologic malignancies; iNHL, 8, 15, and 25 mg BID dose levels): ½
Best Observed Response PR (hematologic malignancies; iNHL, 13 evaluable): 7 n
Best Observed Response SD (hematologic malignancies; iNHL, 13 evaluable): 4 n
doses at which responses were observed (hematologic malignancies; iNHL, CLL/SLL, and MCL): ≤ 50 mg BID
pulmonary metastases by PET/CT (hematologic malignancies; patient, enteropathy-associated T-cell lymphoma, 2 cycles, 60 mg BID): complete resolution
protein bound [6]: 85.9%
NOAEL ([7]; 13-week rat study, oral gavage): 150 mg/m^2/day
NOAEL at 13 weeks ([7]; both, rat, in vivo, po): 25 mg/kg/day
mean AUC0-24 hr at the NOAEL ([7]; rat, Day 91, combined sexes): 14150 ng·h/mL
half-life ([8]; human, in vivo, oral, read-out: eliminating t1/2): 6 to 10 h
doses with mean steady-state trough above levels sufficient for PI3K-δ inhibition [8]: > 15 mg BID
plasma Cmax and AUC over the dose range ([8]; 8-50 mg BID): dose-proportional increases
PK profile ([8]; through 50 mg BID): linear
IL-10 production [9]: inhibition
TNF-α production [9]: inhibition
clearance (Pharmacokinetics, rat): low to moderate
half-life (Pharmacokinetics, rat): less than 2 hrs
volume of distribution (Pharmacokinetics, rat): high
Foral (Pharmacokinetics, rat; PO, 10 mg/kg): 57%
AUC(0-inf) (Pharmacokinetics, rat; [12]): 1160 ng·h/mL
AUC(0-t) (Pharmacokinetics, rat; [12]): 1150 ng·h/mL
Cmax (Pharmacokinetics, rat; [12]): 1520 ng/mL
Tmax (Pharmacokinetics, rat; [12]): 0.083 h
clearance (Pharmacokinetics, rat; Sprague-Dawley, in vivo, IV, 2 mg/kg, read-out: Cl (converted)): 30.5 mL/min/kg
half-life (Pharmacokinetics, rat; Sprague-Dawley, in vivo, IV, 2 mg/kg, read-out: T1/2 (converted)): 0.73 h
Vd (Pharmacokinetics, rat; Sprague-Dawley, in vivo, IV, 2 mg/kg, read-out: Vss): 1.66 L/kg
AUC(0-inf) (Pharmacokinetics, rat; [13]): 3300 ng·h/mL
AUC(0-t) (Pharmacokinetics, rat; [13]): 2930 ng·h/mL
Cmax (Pharmacokinetics, rat; [13]): 785 ng/mL
Tmax (Pharmacokinetics, rat; [13]): 1.2 h
half-life (Pharmacokinetics, rat; Sprague-Dawley, in vivo, PO, 10 mg/kg, read-out: T1/2 (converted)): 2.4 h
protein bound [10]: 76.8%
